Earlier results on two compounds are cited in patent publication US12440530B2, “Skin solution with solubilized bakuchiol” (Envy Medical, Inc., priority 2013, dated 2025).

Series [1] concerns facial acne vulgaris. As to conditions: in vivo.

For the compound `C=C[C@@](C)(/C=C/c1ccc(O)cc1)CCC=C(C)C` [Bakuchiol, bakuchiol], the solubility in water entry was “very insoluble in water”. Also, in series [1], the “inflammatory (papules, cysts) and noninflammatory (blackheads) lesions” value is “significant reductions”; the “study subjects with partial or total clearing of acne-related post inflammatory hyperpigmentation (PIH)” value was “Forty-five”.

Consider `CC(C)=CCC[C@](C)(O)C1CC=C(C)CC1` (stereo partly shown) [bisabolol], for which the solubility in water entry is “very insoluble in water”.
